Results as given in US6177592A, “Compounds” (priority 1997, dated 2001).

What was measured:
Fas antigen = Fas antigen expression in Molt-3 cells; type: cell-based, human
Procedure: (2) Influence of GM on Fas antigen expression (productive induction) in Jurkat cells and Molt-3 cells was measured as follows. In a 10% FCS-containing RPMI 1640 medium containing 0, 1, 5, 10 or 20 μM of cyclopentenone or GM, 5×10^5 cell/ml of Jurkat cells or Molt-3 cells were incubated at 37° C. for 24 hours in the presence of 5% of CO2 and then subjected to a two-step immunostaining using an anti-Fas antibody (manufactured by Boehringer-Ingelheim) in accordance with a method of Munker [Munker, R.: Ann. Hematol., volume 70, pages 15-17 (1995)].
Fluorescence intensity of the stained 1×10^4 cells was measured by a flow cytometer (Orthocytron; manufactured by Ortho Diagnostic Systems) and ratio of the cell showing a predetermined or higher fluorescence intensity which were Fas antigen-expressing cells was calculated.
(3) Molt-3 cells were incubated for 1, 3, 6, 12 or 24 hours after addition of 10 (i M of GM by the same manner as in Example 12-(2) and then the ratio of the cells which expressed Fas antigen was measured by the same method as in Example 12-(2)sa

[1] = test system: DSEK cell (fibroblast strain from synovial membrane); assay: Growth of DSEK synovial fibroblasts (WST-1) and apoptosis; type: cell-based, human (patient suffering from chronic articular rheumatism)
Procedure: DSEK cell (cell strain stored at the Department of Second Internal Medicine, Integrated Medical Center, Saitama College of Medicine) which was a fibroblast strain established from synovial membrane of a patient suffering from chronic articular rheumatism was incubated in an Iscob-modified Dulbecco medium (IMDM, manufactured by Gibco, 12440-053) containing 10% fetal bovine serum (FBS, manufactured by Gibco, 26140-079) at 37° C. in the presence of 5% carbon dioxide gas until confluent and then the cells were collected by peeling off with trypsin-EDTA (manufactured by Gicbo, 25300-054). The cells were suspended in the above-mentioned medium until 25,000 cells/ml were resulted and each 100 μl was placed in each well of a 96-well microtiter plate. After five days from incubation when the state of confluence was almost achieved, the medium was discarded and then the above-mentioned medium containing 2.5, 5, 10, 20 or 30 μM of GM was added. After incubating for 24, 48 or 72 hours, 10 μl of a premix WST-1 (manufactured by Takara Shuzo, MK400) was added thereto followed by subjecting to a reaction at 37° C. for four hours. The value obtained by deducting the absorbance at 650 nm (A650) from that at 450 nm (A450) was defined as a degree of growth of cell.

topoisomerase I = biological target: T1, topoisomerase I (Homo sapiens, UniProt P11387); assay: Topoisomerase I inhibition; type: biochemical; details: 1 mM GM
T1 construct: pBR322 supercoil relaxation assay
Procedure: (2) Activity of GM for inhibiting the topoisomerase I was measured by the same method as in Example 17-(1) except that topoisomerase I [manufacturedby TopoGEN, 0.01 unit/y 1] was used instead of topoisomerase II; and 100 mM Tris-HCl (pH 7.9), 10 mM EDTA, 1 mM spermidine and 50% glycerol were used as a buffer with a ten-fold diluted concentration. Incidentally, as a sample, GM was added to make the final concentration 1 mM.

p24 antigen = p24 antigen in culture supernatant of CEM-3B cells; type: cell-based, HIV-1IIIB; details: one day
Procedure: (2) Concentration of p24 antigen contained in the supernatant liquid in the culture after incubation of the CEM-3B cells mentioned in Example 15-(1) for one day was measured.

topoisomerase II = biological target: T2, topoisomerase II (Homo sapiens, UniProt P11388); assay: Topoisomerase II inhibition (pBR322 relaxation); type: biochemical; set-up: key to Inhibiting Activity: -: a complete change from a supercoiled type to a relaxation type; +: a change in a medium degree; ++: most of supercoiled type remained; +++: there was no decrease in a supercoiled type at all
T2 construct: purchased TopoGEN
Procedure: (1) One μl of 0.25 μg/μl pBR322 DNA (manufactured by Takara Shuzo) was added to a mixture of 2 μl of topoisomerase II (manufactured by TopoGEN, 2 units/μl), 2 μl of a buffer with a ten-fold diluted concentration [0.5M Tris-HCl (pH 8.0), 1.2M KCl, 0.1M MgCl2, 5 mM adenosine triphosphate and 5 mM dithiothreitol], 2 μl of 0.1% bovine serum albumin (manufactured by Takara Shuzo), 11 μl of distilled water and 2 μl of distilled water (a control) or a sample (50, 100, 200, 500, 1000 or 2500 μM of GM) and made to react at 37° C. After the reaction for 30 minutes, the reaction was stopped by adding 2 μl aqueous solution of 1% sodium dodecylsulfate, 50% glycerol and 0.02% Bromophenol Blue.
The above reaction solution (20 μl) was applied to 1% agarose gel prepared from agarose L03 (manufactured by Takara Shuzo) and TAE buffer [40 mM Tris, 5 mM sodium acetate and 1 mM disodium ethylenediaminetetraacetate (EDTA); adjusted to pH 7.8 with acetic acid] and electrophoresis was conducted in the TAE buffer. After the electrophoresis, the gel was dipped in an aqueous solution of 1 μg/ml ethidium bromide and irradiated with ultraviolet ray to observe the electrophoretic pattern of DNA.

[2] = test system: sensitivity reaction of a delayed type; assay: Delayed type hypersensitivity (ovine erythrocyte, pedal edema); type: in vivo, mouse (C57BL/6); details: 30 and 300 mg/kg i.p., three days
Procedure: C57BL/6 mice (female, five weeks age, body weight about 20 g) were purchased from Nippon SLC and used for the experiment after a preliminary breeding for one week at our end. Ovine erythrocyte (manufactured by Shimizu Jikken Zairyo) which is an antigen provoking the sensitivity reaction of a delayed type was washed three times with a physiological saline solution (manufactured by Otsuka Pharmaceutical) to make […] and 203 μl of it was intraperitoneally injected to mice to subject to an antigen sensitization.
After five days from the sensitization, 40 μl of antigen which was prepared by the same manner was injected to right paw to induce an antigen whereby pedal edema was provoked. From the antigen-sensitized date, GM was intraperitoneally administered to mice (one group consisting of five mice) once daily at the dose of 30 mg/kg or 300 mg/kg for three days.
After two days from the antigen induction, volume of right paw of the mice was measured by a measuring device for pedal edema (manufactured by Ugo Basile) and used as an index for the sensitivity reaction of a delayed type. The measured value was given by calculating the increasing rate from the right paw volume of the mice measured before the antigen induction.

T2 sequence (P11388 whole entry): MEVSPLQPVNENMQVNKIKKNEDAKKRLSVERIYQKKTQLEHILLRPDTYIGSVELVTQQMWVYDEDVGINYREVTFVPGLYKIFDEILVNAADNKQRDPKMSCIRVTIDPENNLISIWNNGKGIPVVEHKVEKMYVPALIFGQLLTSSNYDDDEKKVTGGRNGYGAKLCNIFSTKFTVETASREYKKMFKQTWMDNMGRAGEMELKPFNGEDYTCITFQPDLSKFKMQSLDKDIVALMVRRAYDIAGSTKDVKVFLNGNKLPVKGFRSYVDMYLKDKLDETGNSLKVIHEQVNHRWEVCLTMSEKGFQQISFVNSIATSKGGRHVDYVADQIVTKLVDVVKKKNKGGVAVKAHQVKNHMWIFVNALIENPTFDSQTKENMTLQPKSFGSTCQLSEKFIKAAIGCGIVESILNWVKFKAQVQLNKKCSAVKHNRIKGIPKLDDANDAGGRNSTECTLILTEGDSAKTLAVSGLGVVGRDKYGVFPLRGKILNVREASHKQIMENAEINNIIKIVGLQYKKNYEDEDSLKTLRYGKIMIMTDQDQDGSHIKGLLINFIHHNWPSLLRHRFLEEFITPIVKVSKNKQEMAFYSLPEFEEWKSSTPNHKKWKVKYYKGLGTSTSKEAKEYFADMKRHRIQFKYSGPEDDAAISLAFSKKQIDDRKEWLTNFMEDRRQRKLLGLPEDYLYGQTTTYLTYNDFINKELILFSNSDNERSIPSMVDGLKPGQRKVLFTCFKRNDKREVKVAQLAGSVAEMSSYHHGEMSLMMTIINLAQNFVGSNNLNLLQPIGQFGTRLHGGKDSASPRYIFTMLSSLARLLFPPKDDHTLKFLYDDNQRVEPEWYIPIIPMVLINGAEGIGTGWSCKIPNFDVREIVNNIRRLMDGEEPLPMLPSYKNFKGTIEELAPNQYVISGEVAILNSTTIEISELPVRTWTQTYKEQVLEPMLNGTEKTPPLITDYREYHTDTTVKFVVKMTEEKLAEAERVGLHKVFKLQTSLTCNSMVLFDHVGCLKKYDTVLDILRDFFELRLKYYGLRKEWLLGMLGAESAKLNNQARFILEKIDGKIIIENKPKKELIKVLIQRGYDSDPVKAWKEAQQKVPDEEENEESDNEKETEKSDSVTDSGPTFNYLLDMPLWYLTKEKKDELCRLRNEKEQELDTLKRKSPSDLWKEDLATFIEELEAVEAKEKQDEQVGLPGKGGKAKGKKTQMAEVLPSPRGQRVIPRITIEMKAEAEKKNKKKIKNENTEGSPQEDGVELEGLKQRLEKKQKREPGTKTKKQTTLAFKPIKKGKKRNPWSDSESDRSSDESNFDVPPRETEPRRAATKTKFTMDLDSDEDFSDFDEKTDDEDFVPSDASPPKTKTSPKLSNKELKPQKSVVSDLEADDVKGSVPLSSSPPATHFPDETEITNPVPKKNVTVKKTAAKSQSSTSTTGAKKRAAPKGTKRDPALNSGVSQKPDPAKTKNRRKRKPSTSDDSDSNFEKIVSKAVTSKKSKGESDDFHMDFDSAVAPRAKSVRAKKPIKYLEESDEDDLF
T1 sequence (P11387 whole entry): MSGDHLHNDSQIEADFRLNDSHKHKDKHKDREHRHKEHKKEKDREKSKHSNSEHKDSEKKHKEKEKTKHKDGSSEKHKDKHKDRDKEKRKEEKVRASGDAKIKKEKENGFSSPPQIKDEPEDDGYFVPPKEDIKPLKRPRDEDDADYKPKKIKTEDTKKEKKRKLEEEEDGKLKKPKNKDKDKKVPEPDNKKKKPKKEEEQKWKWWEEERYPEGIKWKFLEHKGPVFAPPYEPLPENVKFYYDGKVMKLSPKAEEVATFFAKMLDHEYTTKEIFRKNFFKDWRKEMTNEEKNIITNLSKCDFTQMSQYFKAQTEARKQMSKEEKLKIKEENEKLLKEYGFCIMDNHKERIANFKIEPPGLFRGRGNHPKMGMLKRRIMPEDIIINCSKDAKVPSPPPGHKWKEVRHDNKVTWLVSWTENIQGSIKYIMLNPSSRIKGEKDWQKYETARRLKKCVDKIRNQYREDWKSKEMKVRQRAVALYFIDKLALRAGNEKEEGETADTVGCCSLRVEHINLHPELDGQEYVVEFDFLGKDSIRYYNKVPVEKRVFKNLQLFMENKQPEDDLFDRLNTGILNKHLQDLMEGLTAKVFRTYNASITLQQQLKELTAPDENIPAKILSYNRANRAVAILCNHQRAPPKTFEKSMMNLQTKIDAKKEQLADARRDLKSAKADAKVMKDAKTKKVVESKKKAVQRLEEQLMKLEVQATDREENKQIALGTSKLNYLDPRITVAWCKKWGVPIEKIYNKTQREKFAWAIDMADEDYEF

N[C@@H](CCC(=O)N[C@@H](CSC1C=C(O)C(=O)C1)C(=O)NCC(=O)O)C(=O)O (stereo partly shown) [GM, 2-hydroxy-4-glutathion-S-yl-2-cyclopenten-1-one]
ratio of Fas antigen-expressing cells, time course (Fas antigen; 10 μM, 1-24 hours): increased after 12 hours from the incubation and further increase was noted after 24 hours | ratio of Fas antigen-expressing cells (Fas antigen; 1-10 μM, 24 hours): the ratio of Fas antigen-expressing cells increased on a concentration-dependent manner | degree of growth of cell (A450 - A650) ([1]; 2.5 μM, 24 hours, 0 μM 0.846): 0.768 | degree of growth of cell (A450 - A650) ([1]; 2.5 μM, 48 hours, 0 μM 1.270): 1.133 | degree of growth of cell (A450 - A650) ([1]; 5 μM, 24 hours, 0 μM 0.846): 0.621 | degree of growth of cell (A450 - A650) ([1]; 5 μM, 48 hours, 0 μM 1.270): 0.942 | production of apoptic bodies ([1]; 10 μM): production of apoptic bodies was noted | degree of growth of cell (A450 - A650) ([1]; 10 μM, 24 hours, 0 μM 0.846): 0.420 | degree of growth of cell (A450 - A650) ([1]; 10 μM, 48 hours, 0 μM 1.270): 0.486 | degree of growth of cell (A450 - A650) ([1]; 20 μM, 24 hours, 0 μM 0.846): 0.238 | degree of growth of cell (A450 - A650) ([1]; 20 μM, 48 hours, 0 μM 1.270): 0.185 | degree of growth of cell (A450 - A650) ([1]; 30 μM, 24 hours, 0 μM 0.846): 0.241 | degree of growth of cell (A450 - A650) ([1]; 30 μM, 48 hours, 0 μM 1.270): 0.196 | apoptosis-inducing and growth-inhibiting action to synovial cells (in words) ([1]; Example 11): apoptosis-inducing action and growth-inhibiting action to synovial cells | minimal effective concentration ([1]; Homo sapiens, Fibroblast, 24 and 48 hours, vs control, read-out: concentration at which cell growth was inhibited): ≥ 5 µM | inhibition of topoisomerase I (topoisomerase I): topoisomerase I was inhibited by 1 mM GM | p24 concentration in supernatant (p24 antigen): the p24 concentration decreased depending upon the concentration of the added GM | concentration at which change of DNA to relaxation type was partially or completely inhibited (topoisomerase II): ≥ 10 µM | Inhibiting Activity (topoisomerase II; 5 μM): - | Inhibiting Activity (topoisomerase II; 10 μM): + | Inhibiting Activity (topoisomerase II; 20 μM): ++ | Inhibiting Activity (topoisomerase II; 50 μM): ++ | Inhibiting Activity (topoisomerase II; 100 μM): +++ | Inhibiting Activity (topoisomerase II; 250 μM): +++ | inhibiting action to a sensitivity reaction of a delayed type [2]: significant inhibiting action to a sensitivity reaction of a delayed type
